According to PMC3310380 (Journal of Biomolecular Screening, 2010):

Experiments:
[1] = tested on: EBV genome copy number in Raji Burkitt lymphoma cells; experiment: EBV genome maintenance assay in Raji cells; format: cell-based, Epstein-Barr virus; details: six days, 50 μM
EBNA1 DBD = EBNA1 DBD (Epstein-Barr virus, UniProt P03211 459-607); experiment: EMSA
Sequence of EBNA1 DBD (P03211 459-607): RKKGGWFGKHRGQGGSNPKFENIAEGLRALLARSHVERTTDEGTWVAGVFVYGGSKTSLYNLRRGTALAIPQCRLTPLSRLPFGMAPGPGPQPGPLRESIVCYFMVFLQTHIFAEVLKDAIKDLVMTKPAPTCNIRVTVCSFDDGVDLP

Row | Molecule | EBV DNA copy number, of its original content relative to cellular actin [1] | binding result (EBNA1 DBD)
1 | NC(=O)NO [HU, hydroxyurea] | ~ 48% | –
2 | Probe A (dsDNA) DNA 1: GGGTAGCATATGCTACCC DNA 2: GGGTAGCATATGCTACCC | – | binds
